Laboratory results published in patent publication US12409159B2, “3-hydroxybutyrate alone or in combination for use in the treatment of critical care treatment” (KATHOLIEKE UNIVERSITEIT LEUVEN, priority 2016, dated 2025).
Counter-ions that a name gives are not always drawn.

Legend:
[1] = tested on: mouse model of prolonged critical illness evoked by sepsis (cecal ligation and puncture); assay: Ex vivo force measurement of isolated extensor digitorum longus (EDL) muscle, mouse model of prolonged critical illness evoked by sepsis; assay type: in vivo, mice
Excerpt: Mice experiment 2: We examined muscle force ex vivo in lean and diet-induced obese CLP mice. […] Mice were randomly allocated to “healthy control” or “CLP.” As in experiment 1 we had observed that muscle wasting occurred irrespective of feeding, we now only compared parenterally fed with pair-fed lean (n=17) and obese (n=15) healthy mice. Until day 5, 15/18 lean and 15/18 obese CLP mice survived. After 5 days, animals were deeply anesthetized and the m. extensor digitorum longus (EDL) was carefully dissected from both hind limbs for ex vivo muscle force measurements.
(§1) We studied the effect of subcutaneous administration of D,L-3-hydroxybutyrate sodium salt on muscle wasting and weakness in a validated mouse model of prolonged critical illness evoked by sepsis (cecal ligation and puncture followed by resuscitation and intensive medical care). The intervention was studied in the parenterally fed and in the fasted state.
Muscle function was quantified in isolated extensor digitorum longus (EDL) muscle. Critical illness in parenterally fed mice (PN) reduced the absolute maximal force generated by EDL to 57% of healthy controls (p<0.0001) (FIG. 9). […]
(§2) Muscle mass and function was quantified in isolated extensor digitorum longus (EDL) muscle. […]

[2] = tested on: mouse model of prolonged critical illness evoked by sepsis (cecal ligation and puncture); assay: 5-day mortality in prolonged critically ill mice; assay type: in vivo
Excerpt: FIG. 10. Effect of 3-hydroxybutyrate injections on 5-day mortality in prolonged critically ill mice. Black line, healthy control mice (15/15 survivors); gray line, parenterally fed critically ill mice (17/20 survivors); dash dot line; parenterally fed critically ill mice receiving 3-hydroxybutyrate (17/21 survivors); dotted line, fasted critically ill mice receiving 3-hydroxybutyrate (14/22 survivors). [PN=parenteral nutrition; 3HB=3-hydroxybutyrate].
as §1
Muscle function was quantified in isolated extensor digitorum longus (EDL) muscle. Critical illness in parenterally fed mice (PN) reduced the absolute maximal force generated by EDL to 57% of healthy controls (p<0.0001) (FIG. 9). However, when parenterally fed critically ill mice received subcutaneous twice daily a bolus of 75 mg of D,L-3-hydroxybutyrate sodium salt (PN+3HB), maximal muscle force improved dramatically to 83% of healthy controls (p<0.0001) (FIG. 9).

[3] = tested on: mouse model of prolonged critical illness evoked by sepsis (cecal ligation and puncture); assay: Muscle wasting: weight of isolated skeletal muscles (EDL, tibialis anterior) in prolonged critically ill mice; assay type: in vivo; settings: Example 7, first experiment, fasted critically ill mice
Description: To control for potential illness- or resuscitation-related changes in fluid content, dry weight of isolated tissues was obtained by a freeze-drying process. Myofiber cross-sectional area (CSA) was quantified on digital microscopy images of hematoxylin and eosin stained paraffin sections with in-house designed algorithms. In addition, the presence of myofiber degeneration, necrosis and inflammation was histologically evaluated. Triglyceride content of tissues was determined with a commercial colorimetric assay (triglyceride quantification kit, Abcam, Cambridge, UK).
as §1
Muscle wasting was evaluated by quantification of the dry weight of isolated skeletal muscles. Muscle weight of the EDL muscle decreased in all critically ill mice, irrespective of hydroxybutyrate treatment or nutritional regime (1.9±0.3 mg for PN, 2.1±0.3 mg for PN+3HB, and 2.0±0.4 mg for fasting+3HB as compared with 2.7±0.3 mg in healthy control mice; p<0.0001) (FIG. 11A). […]
as §2

CC(O)CC(=O)O (racemic) [D,L-3-hydroxybutyrate sodium salt]
absolute maximal force generated by EDL, % of healthy controls ([1]; Example 7, first experiment, fasted critically ill mice (survivors), 3HB 75 mg subcutaneous bolus twice daily): 33% | effect on muscle weakness and muscle wasting (conclusion) ([1]; daily supplementation to parenterally fed mice, prolonged sepsis-induced critical illness): largely prevented muscle weakness but not muscle wasting | 5-day survivors ([2]; fasted critically ill mice): 14/22 | risk of death ([2]; fasted critically ill mice, 3HB 75 mg boluses twice daily): increased risk of death | 5-day survivors ([2]; parenterally fed critically ill mice): 17/21 | dry weight of the EDL muscle ([3]; healthy controls 2.7±0.3 mg): 2.0 ± 0.4 mg | dry weight of the tibialis anterior muscle ([3]; healthy controls 12.4±1.3 mg): 8.4 ± 1.8 mg
